From US20180200257A1, “METHODS FOR THE TREATMENT OF INFLAMMATORY DISORDERS” (Galapagos NV, priority 2015, published 2018)

Test system: subjects with moderately to severely active RA who have an inadequate response to methotrexate (MTX)
Experiment: Study 2 (monotherapy) - ACR responses (ACR20/50/70)
Assay type: in vivo, human
Text: The terms “ACR20”, “ACR50” and “ACR70” as used herein are scores which indicate how much a patient's rheumatoid arthritis has improved according to criteria set out by the American College of Rheumatology (ACR). The ACR score represents a percentage. An ACR20 score means that a person's RA has improved by 20%, an ACR50 score means it has improved by 50%, and an ACR70 score means it has improved by 70%. Specifically, to qualify for an ACR20 score, a person with RA must have at least 20% fewer tender joints and at least 20% fewer swollen joints. In addition the patient must show a 20% improvement in at least three of the following five areas: the person's overall (global) assessment of his or her own RA, the physician's global assessment of the person's RA, the person's assessment of his or her own pain, the person's assessment of his or her own physical functioning, and the results of an erythrocyte sedimentation rate or C-reactive protein (CRP) blood test (both of which test for inflammation). ACR50 and ACR70 scores use the same criteria but require 50% and 70% improvement, respectively, (Felson et al., 1993). In the data presented herein the CRP blood test is used.
Randomized, double-blind, placebo-controlled, multicenter, phase IIb dose finding study of Compound 1 (dosed as a [Compound 1:HCl:3H2O]) administered for 24 weeks as monotherapy to subjects with moderately to severely active rheumatoid arthritis who have an inadequate response to methotrexate alone
Double-blind, placebo-controlled, monotherapy study in subjects with moderately to severely active RA who have an inadequate response to methotrexate (MTX) (oral or parenteral).
280 subjects randomized to one of 3 doses of Compound 1 (dosed as a [Compound 1:HCl:3H2O]) or to placebo, given once daily (q.d.).
Twelve weeks of treatment with Compound 1 (dosed as a [Compound 1:HCl:3H2O]) at 50 mg, 100 mg, or 200 mg q.d.; or placebo. At Week 12, all subjects on placebo and the subjects on the 50 mg dose who have not achieved 20% improvement in swollen joint count (SJC66) and tender joint count (TJC68) will be assigned to 100 mg q.d. in a blinded fashion and will continue treatment until Week 24. Subjects in the other groups will maintain their randomized treatment until Week 24.
The American College of Rheumatology (ACR) composite score, which evaluates clinical improvement relative to an initial assessment, is a commonly accepted efficacy end point for clinical trials in patients with rheumatoid arthritis. The ACR score correspond to a percentage improvement in pre-set parameters, and therefore measures the evolution of the disease in a patient. For example, ACR20 denotes at least 20% improvement in tender and swollen joint counts and in three of the following end points: global assessment by the patient, global assessment by the doctor, C reactive protein (CRP), patient's pain Visual Analogue Scale and Health Assessment Questionnaire Score. The number of swollen joints, ESR and CRP correlate with radiographic progression of joint damage, whereas tender joint counts, as well as global assessments by doctors and patients, and patients' reports of pain, are sensitive to change in clinical outcomes. Physical function, as assessed by the Health Assessment Questionnaire Score, is a potent predictor of the risk of disability in rheumatoid arthritis (Felson and American College of Rheumatology Committee to Reevaluate Improvement Criteria, 2007; Felson et al., 1993).
In particular, the list of parameters used to assess ACR score can be found in the Table XCVI below and the results of the ACR responses at week 12 via either NRI or LOCF are shown in the tables below. The Hommel-corrected p-value for the pairwise comparisons of each group with placebo is shown. […]

[1] = 100 mg q.d., week 4, 12 weeks results
[2] = 100 mg q.d., week 4, 24 weeks results
[3] = 100 mg q.d., week 8, 24 weeks results
[4] = 100 mg q.d., week 12, 12 weeks results
[5] = 100 mg q.d., week 12, 24 weeks results
[6] = 100 mg q.d., week 16, 24 weeks results
[7] = 100 mg q.d., week 20, 24 weeks results
[8] = 100 mg q.d., week 24, 24 weeks results
[9] = 100 mg q.d., week 8, 12 weeks results
[10] = 200 mg q.d., week 1, 12 weeks results
[11] = 200 mg q.d., week 1, 24 weeks results
[12] = 200 mg q.d., week 2, 12 weeks results
[13] = 200 mg q.d., week 2, 24 weeks results
[14] = 200 mg q.d., week 4, 12 weeks results
[15] = 200 mg q.d., week 4, 24 weeks results
[16] = 200 mg q.d., week 8, 24 weeks results
[17] = 200 mg q.d., week 12, 12 weeks results
[18] = 200 mg q.d., week 12, 24 weeks results
[19] = 200 mg q.d., week 16, 24 weeks results
[20] = 200 mg q.d., week 20, 24 weeks results
[21] = 200 mg q.d., week 24, 24 weeks results
[22] = 200 mg q.d., week 8, 12 weeks results

## O=C(Nc1nc2cccc(-c3ccc(CN4CCS(=O)(=O)CC4)cc3)n2n1)C1CC1 [Compound 1, cyclopropanecarboxylic acid {5-[4-(1,1-dioxo-thiomorpholin-4-ylmethyl)-phenyl]-[1,2,4]triazolo[1,5-a]pyridin-2-yl}-amide]
[1]
  ACR20 (NRI): 44.3%
  ACR50 (LOCF): 18.6%
  ACR50 (NRI): 18.6%
  ACR70 (LOCF): 5.7%
  ACR70 (NRI): 5.7%
[2]
  ACR20 (LOCF): 44.3%
  ACR20 (NRI): 44.3%
  ACR50 (LOCF): 18.6%
  ACR50 (NRI): 18.6%
  ACR70 (LOCF): 5.7%
  ACR70 (NRI): 5.7%
[3]
  ACR50 (NRI): 25.7%
  ACR70 (NRI): 11.4%
[4]
  ACR50 (NRI): 34.3%%
  ACR70 (NRI): 18.6%%
[5]
  ACR50 (NRI): 35.7%
  ACR70 (NRI): 18.6%
[6]
  ACR50 (NRI): 38.6%
  ACR70 (NRI): 17.1%
[7]
  ACR50 (NRI): 41.4%
  ACR70 (NRI): 24.3%
[8]
  ACR50 (NRI): 40.0%
  ACR70 (NRI): 25.7%
[9]
  ACR20 (LOCF): 60.0%
  ACR20 (NRI): 61.4%
  ACR50 (LOCF): 25.7%
  ACR50 (NRI): 25.7%
  ACR70 (LOCF): 11.4%
  ACR70 (NRI): 11.4%
[10]
  ACR20 (LOCF): 39.1%
  ACR20 (NRI): 39.1%
  ACR50 (LOCF): 7.2%
  ACR50 (NRI): 7.2%
  ACR70 (LOCF): 1.4%
  ACR70 (NRI): 1.4%
[11]
  ACR20 (LOCF): 39.1%
  ACR20 (NRI): 39.1%
  ACR50 (LOCF): 7.2%
  ACR50 (NRI): 7.2%
  ACR70 (LOCF): 1.4%
  ACR70 (NRI): 1.4%
[12]
  ACR20 (LOCF): 53.6%
  ACR20 (NRI): 56.5%
  ACR50 (LOCF): 21.7%
  ACR50 (NRI): 21.7%
  ACR70 (LOCF): 4.3%
  ACR70 (NRI): 4.3%
[13]
  ACR20 (LOCF): 56.5%
  ACR20 (NRI): 56.5%
  ACR50 (LOCF): 21.7%
  ACR50 (NRI): 21.7%
  ACR70 (LOCF): 4.3%
  ACR70 (NRI): 4.3%
[14]
  ACR20 (LOCF): 62.3%
  ACR20 (NRI): 63.8%
  ACR50 (LOCF): 23.2%
  ACR50 (NRI): 23.2%
  ACR70 (LOCF): 11.6%
  ACR70 (NRI): 11.6%
[15]
  ACR20 (LOCF): 63.8%
  ACR20 (NRI): 62.3%
  ACR50 (LOCF): 23.2%
  ACR50 (NRI): 23.2%
  ACR70 (LOCF): 11.6%
  ACR70 (NRI): 11.6%
[16]
  ACR50 (NRI): 33.3%
  ACR70 (NRI): 17.4%
[17]
  ACR50 (NRI): 43.5%%
  ACR70 (NRI): 13.0%%
[18]
  ACR50 (NRI): 43.5%
  ACR70 (NRI): 13.0%
[19]
  ACR50 (NRI): 40.6%
  ACR70 (NRI): 18.8%
[20]
  ACR50 (NRI): 44.9%
  ACR70 (NRI): 24.6%
[21]
  ACR50 (NRI): 44.9%
  ACR70 (NRI): 24.6%
[22]
  ACR20 (LOCF): 72.5%
  ACR20 (NRI): 73.9%
  ACR50 (LOCF): 33.3%
  ACR50 (NRI): 33.3%
  ACR70 (LOCF): 17.4%
  ACR70 (NRI): 17.4%
